Data from US20250353891A1 (MEDIMMUNE LIMITED, priority 2022, published 2025).
Like-named read-outs stand apart in the source and are kept apart here. Starred links: 1 amine or outer side, 2 acyl side, 3 side chain; linkers in the order of their positions; H or OH if unused. Non-standard residues stand in square brackets, D forms with d. Residues, ends and D or L forms follow the SMILES beside them. Groups on a side chain read outwards from the residue. *: point of attachment. C20 diacid = O=C(O)CCCCCCCCCCCCCCCCCCC(=O)*; C18 diacid = O=C(O)CCCCCCCCCCCCCCCCC(=O)*; Dip = N[C@H](C(=O)O)C(c1ccccc1)c1ccccc1; γGlu = O=C(O)[C@H](CCC(=O)[*:2])N[*:1]; αMeF = C[C@](N)(Cc1ccccc1)C(=O)O; Myristoyl = CCCCCCCCCCCCCC(=O)*; PEG2 = NCCOCCOCCC(=O)O; AEEA = NCCOCCOCC(=O)O; Aib = CC(C)(N)C(=O)O

Columns and labels:
wildtype (WT) mice = experiment: Glucose change in wildtype mice; assay type: in vivo, mouse; settings: s.c.; for WT % glucose change 120 min: 120 min vs 0 min; for WT % glucose change 60 min: 60 min vs 0 min
Description: (§1) GLP-1R knockout (KO) and wildtype (WT) mice at 8-14 weeks of age were singly housed on standard chow diet (Envigo, 2918) and automatic water. They acclimated for a minimum of ˜1-2 weeks, and mice were sorted into groups (n=4-8/group) based on body weight. On day of study, mice were fasted briefly for 2 hrs prior to study start. In some studies, mice were pre-treated with octreotide (BaChem, 10 mg/kg) at 30 minutes prior to peptide injection. Glucose was measured via glucometer at various timepoints including-30 min (prior to octreotide when used in studies), 0 min (before peptide dose), 30, 60, 120, 180, 240, and 360 minutes. Since these studies are acute in nature, mice were re-used for multiple studies (no more than 3) and always allowed at least a minimum wash-out period of 1 week.

[1] = Mouse acute food intake study; assay type: in vivo; settings: male C57Bl/6 mice, s.c., cumulative food intake at 24 hr vs vehicle
Outline: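 Single-housed male C57Bl/6 mice (8-9 weeks on arrival), chow-fed, acclimated and sham-dosed ≥2 times, were fasted 6-8 h, then given vehicle or peptide subcutaneously at 5 mL/kg 1-2 h before lights out. Food intake was recorded automatically over 48 h and analysed as cumulative intake.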

[2] = test system: GLP-1R knockout (KO) mice; experiment: Glucose change in GLP-1R knockout mice; assay type: in vivo, mouse; settings: GLP-1R KO mice, s.c.; for GLP-1R KO % glucose change 120 min: 120 min vs 0 min; for GLP-1R KO % glucose change - 60 min: 60 min vs 0 min
Description: as §1, with “They” for “GLP-1R knockout (KO) and wildtype (WT) mice at 8-14 weeks of age were singly housed on standard chow diet (Envigo, 2918) and automatic water. They”

[3] = biological target: human GLP-1 receptor (hGLP-1R) (Homo sapiens, UniProt P43220); experiment: cAMP production (HTRF) in CHO cells expressing hGLP-1R; assay type: cell-based; design: expressed in transfected cells; settings: for EC50: cAMP in CHO hGLP-1R cells, geometric mean, read-out: hGLP-1R EC50; for % Relative Potency Ratio: % GLP-1R activity relative to GLP-1 / % GlucR activity relative to glucagon
Outline: (§2)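 Potency values represent EC50 from 4-parameter logistic curves of HTRF % Delta F signal. Receptor-expressing CHO cells (hGCGR 2×10^5 cells/mL, hGLP-1R 1×10^5 cells/mL) were exposed for 30 min at room temperature before two-step cAMP detection.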

[4] = biological target: human glucagon receptor (hGCGR) (Homo sapiens, UniProt P47871); experiment: cAMP production (HTRF) in CHO cells expressing hGCGR; assay type: cell-based; design: expressed in transfected cells; settings: cAMP in CHO hGCGR cells, geometric mean, read-out: hGluc-R EC50
Outline: as §2

[5] = 10 nmol/kg, somatostatin pretreatment (octreotide) 30 min prior to cpd
[6] = 30 nmol/kg, somatostatin pretreatment (octreotide) 30 min prior to cpd
[7] = Table 6, peptides modified at position 17
[8] = Table 7, peptides modified at position 20
[9] = 10 nmol/kg, no somatostatin pretreatment
[10] = 30 nmol/kg, no somatostatin pretreatment

Chain of human glucagon receptor (hGCGR) (P47871 26-477): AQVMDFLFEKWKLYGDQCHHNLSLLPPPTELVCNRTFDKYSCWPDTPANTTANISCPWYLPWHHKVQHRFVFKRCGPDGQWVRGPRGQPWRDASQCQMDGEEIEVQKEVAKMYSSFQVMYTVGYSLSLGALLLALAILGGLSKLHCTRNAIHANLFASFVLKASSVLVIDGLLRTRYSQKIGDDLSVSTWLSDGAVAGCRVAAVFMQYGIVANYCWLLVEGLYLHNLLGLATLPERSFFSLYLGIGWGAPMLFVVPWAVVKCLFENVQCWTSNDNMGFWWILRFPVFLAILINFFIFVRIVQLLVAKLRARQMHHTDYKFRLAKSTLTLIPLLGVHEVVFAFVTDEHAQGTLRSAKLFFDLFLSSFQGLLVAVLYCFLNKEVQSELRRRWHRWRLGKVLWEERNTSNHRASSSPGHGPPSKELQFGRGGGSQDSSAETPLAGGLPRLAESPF
Chain of human GLP-1 receptor (hGLP-1R) (P43220 24-463): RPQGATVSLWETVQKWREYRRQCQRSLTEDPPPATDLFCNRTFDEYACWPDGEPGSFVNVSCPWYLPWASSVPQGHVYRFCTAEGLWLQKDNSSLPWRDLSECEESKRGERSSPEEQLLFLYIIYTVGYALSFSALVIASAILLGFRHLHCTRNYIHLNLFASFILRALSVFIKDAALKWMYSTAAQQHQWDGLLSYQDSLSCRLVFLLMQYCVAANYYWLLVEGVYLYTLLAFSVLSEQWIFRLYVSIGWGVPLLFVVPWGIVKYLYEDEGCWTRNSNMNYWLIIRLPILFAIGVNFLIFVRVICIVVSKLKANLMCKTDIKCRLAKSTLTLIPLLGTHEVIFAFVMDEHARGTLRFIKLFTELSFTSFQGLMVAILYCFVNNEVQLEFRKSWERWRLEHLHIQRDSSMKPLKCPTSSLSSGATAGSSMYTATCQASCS

Row | Structure (SMILES) | WT % glucose change 120 min (wildtype (WT) mice; [5]) [%] | WT % glucose change 120 min (wildtype (WT) mice; [6]) [%] | 24 hr % Vehicle Food Intake ([1]; dose 10 nmol/kg) [%] | GLP-1R KO % glucose change 120 min [2, 5] [%] | GLP-1R KO % glucose change 120 min [2, 6] [%] | EC50 [3, 7] [nM] | % Relative Potency Ratio ([3]; Table 6) | EC50 [4, 7] [nM] | EC50 [3, 8] [nM] | % Relative Potency Ratio ([3]; Table 7) | EC50 [4, 8] [nM] | WT % glucose change 120 min (wildtype (WT) mice; [9]) [%] | WT % glucose change 120 min (wildtype (WT) mice; [10]) [%] | 24 hr % Vehicle Food Intake ([1]; dose 3 nmol/kg) [%] | GLP-1R KO % glucose change 120 min [2, 9] [%] | GLP-1R KO % glucose change 120 min [2, 10] [%] | WT % glucose change 60 min (wildtype (WT) mice; [9]) [%] | WT % glucose change 60 min (wildtype (WT) mice; [10]) [%] | GLP-1R KO % glucose change - 60 min [2, 9] [%] | GLP-1R KO % glucose change - 60 min [2, 10] [%]
1 | CCCCCCCCCCCCCC(=O)N[C@@H](CCC(=O)N[C@@H](CCC(=O)NCCOCCOCCC(=O)NCCOCCOCCC(=O)NCCCC[C@H](NC(=O)[C@H](CO)NC(=O)[C@H](CC(=O)O)NC(=O)[C@H](CC(C)C)NC(=O)[C@@H](NC(=O)[C@H](CCCCN)NC(=O)[C@H](CO)NC(=O)[C@@H](NC(=O)[C@H](CC(=O)O)NC(=O)[C@H](CO)NC(=O)[C@@H](NC(=O)[C@](C)(Cc1ccccc1)NC(=O)[C@H](CO)NC(=O)CNC(=O)[C@H](CCC(N)=O)NC(=O)[C@H](CO)NC(=O)[C@@H](N)Cc1c[nH]cn1)[C@@H](C)O)C(C)C)C(c1ccccc1)c1ccccc1)C(=O)N[C@@H](C)C(=O)N[C@@H](C)C(=O)N[C@@H](CCC(N)=O)C(=O)N[C@@H](CC(=O)O)C(=O)N[C@@](C)(Cc1ccccc1)C(=O)N[C@H](C(=O)N[C@@H](CCC(=O)O)C(=O)NC(C)(C)C(=O)N[C@H](C(=O)N[C@H](C(=O)N[C@@H](CC(N)=O)C(=O)N[C@H](C(N)=O)[C@@H](C)O)[C@@H](C)CC)[C@@H](C)CC)C(C)C)C(=O)O)C(=O)O [Peptide 63] (H-HSQGS[αMeF]TSDVSK[Dip]LDSK([PEG2-PEG2-γGlu-γGlu-Myristoyl])AAQD[αMeF]VE[Aib]IINT-NH2; N-terminus assumed) | −26.4 | −23.8 | 37.9 | 68.2 | 113.0 | 0.00314 | 1.6 | 0.00249 |  |  |  |  |  |  |  |  |  |  |  | 
2 | CC[C@H](C)[C@H](NC(=O)[C@H](Cc1c[nH]c2ccccc12)NC(=O)[C@H](CCC(N)=O)NC(=O)[C@@H](NC(=O)[C@H](Cc1ccccc1)NC(=O)[C@H](CC(=O)O)NC(=O)[C@H](CCCCNC(=O)COCCOCCNC(=O)COCCOCCNC(=O)CC[C@H](NC(=O)CCCCCCCCCCCCCCCCC(=O)O)C(=O)O)NC(=O)[C@H](C)NC(=O)[C@H](C)NC(=O)[C@H](CCC(N)=O)NC(=O)[C@H](CO)NC(=O)[C@H](CC(=O)O)NC(=O)[C@H](CC(C)C)NC(=O)[C@](C)(Cc1ccccc1)NC(=O)[C@H](CCCCN)NC(=O)[C@H](CO)NC(=O)[C@@H](NC(=O)[C@H](CC(=O)O)NC(=O)[C@H](CO)NC(=O)[C@@H](NC(=O)[C@](C)(Cc1ccccc1)NC(=O)[C@H](CO)NC(=O)CNC(=O)[C@H](Cc1c[nH]cn1)NC(=O)C(C)(C)NC(=O)[C@@H](N)Cc1c[nH]cn1)[C@@H](C)O)C(C)C)C(C)C)C(=O)N[C@@H](C)C(=O)N[C@@H](CC(N)=O)C(=O)N[C@H](C(N)=O)[C@@H](C)O [Peptide 203] (H-H[Aib]HGS[αMeF]TSDVSK[αMeF]LDSQAAK([AEEA-AEEA-γGlu-C18 diacid])DFVQWIANT-NH2; N-terminus assumed) | −29.5 | −36.5 | 81.4 | 54.6 | 106.9 |  |  |  | 0.0775 | 0.9 | 0.0341 |  |  |  |  |  |  |  |  | 
3 | CC[C@H](C)[C@H](NC(=O)[C@H](Cc1c[nH]c2ccccc12)NC(=O)[C@H](CCC(N)=O)NC(=O)[C@@H](NC(=O)[C@H](Cc1ccccc1)NC(=O)[C@H](CC(=O)O)NC(=O)[C@H](CCCCNC(=O)COCCOCCNC(=O)COCCOCCNC(=O)CC[C@H](NC(=O)CC[C@H](NC(=O)CCCCCCCCCCCCCCCCCCC(=O)O)C(=O)O)C(=O)O)NC(=O)[C@H](C)NC(=O)[C@H](C)NC(=O)[C@H](CCCNC(=N)N)NC(=O)[C@H](CO)NC(=O)[C@H](CC(=O)O)NC(=O)[C@H](CC(C)C)NC(=O)[C@H](Cc1ccc(O)cc1)NC(=O)[C@H](CCCCN)NC(=O)[C@H](CO)NC(=O)[C@@H](NC(=O)[C@H](CC(=O)O)NC(=O)[C@H](CO)NC(=O)[C@@H](NC(=O)[C@](C)(Cc1ccccc1)NC(=O)[C@H](CO)NC(=O)CNC(=O)[C@H](Cc1c[nH]cn1)NC(=O)C(C)(C)NC(=O)[C@@H](N)Cc1c[nH]cn1)[C@@H](C)O)C(C)C)C(C)C)C(=O)N[C@@H](C)C(=O)N[C@@H](CC(N)=O)C(=O)N[C@H](C(N)=O)[C@@H](C)O [Peptide 289] (H-H[Aib]HGS[αMeF]TSDVSKYLDSRAAK([AEEA-AEEA-γGlu-γGlu-C20 diacid])DFVQWIANT-NH2) |  |  | 49.6 |  |  |  |  |  | 0.118 | 2.5 | 0.148 | −8.5 | −16.1 | 76.1 | 8.9 | 7.7 |  |  |  | 
4 | CC[C@H](C)[C@H](NC(=O)C(C)(C)NC(=O)[C@H](C)NC(=O)[C@@H](NC(=O)[C@](C)(Cc1ccccc1)NC(=O)[C@H](CC(=O)O)NC(=O)[C@H](CCCCNC(=O)COCCOCCNC(=O)COCCOCCNC(=O)CC[C@H](NC(=O)CCCCCCCCCCCCCCCCC(=O)O)C(=O)O)NC(=O)[C@H](C)NC(=O)[C@H](C)NC(=O)[C@H](CCCNC(=N)N)NC(=O)[C@H](CO)NC(=O)[C@H](CC(=O)O)NC(=O)[C@H](CC(C)C)NC(=O)[C@](C)(Cc1ccccc1)NC(=O)[C@H](CCCCN)NC(=O)[C@H](CO)NC(=O)[C@@H](NC(=O)[C@H](CC(=O)O)NC(=O)[C@H](CO)NC(=O)[C@@H](NC(=O)[C@](C)(Cc1ccccc1)NC(=O)[C@H](CO)NC(=O)CNC(=O)[C@H](Cc1c[nH]cn1)NC(=O)C(C)(C)NC(=O)[C@@H](N)Cc1c[nH]cn1)[C@@H](C)O)C(C)C)[C@@H](C)CC)C(=O)N[C@@H](C)C(=O)N[C@@H](CCC(=O)O)C(=O)N[C@H](C(N)=O)[C@@H](C)O [Peptide 301] (H-H[Aib]HGS[αMeF]TSDVSK[αMeF]LDSRAAK([AEEA-AEEA-γGlu-C18 diacid])D[αMeF]IA[Aib]IAET-NH2; N-terminus assumed) |  |  | 54.9 |  |  |  |  |  | 0.0553 | 1.1 | 0.0318 |  |  |  |  |  | −43 | −35.7 | 29.1 | 17.9
